Activity calls are given as the source filed them. Unless noted, the calls are words filed in the database; no cut-off is given here.
How the values were obtained:
HSP90 = HSP90 (Plasmodium falciparum 3D7, UniProt Q8IL32); type: functional, organism-based
Candida albicans [1] = assay: growth inhibition of azole-resistant C. albicans, dose response, CaCi-8 strain, Alamar Blue, dry powder, set 3 (AID 488905); type: functional, organism-based
Candida albicans [2] = assay: reversal of fluconazole resistance in C. albicans, dose response, CaCi-2 strain, Alamar Blue, dry powder, set 3 (AID 488907); type: functional, organism-based
CAAX prenyl protease 2 [3] = biological target: T1, CAAX prenyl protease 2 (Saccharomyces cerevisiae S288c, UniProt Q03530); type: biochemical
T1 sequence (Q03530 whole entry): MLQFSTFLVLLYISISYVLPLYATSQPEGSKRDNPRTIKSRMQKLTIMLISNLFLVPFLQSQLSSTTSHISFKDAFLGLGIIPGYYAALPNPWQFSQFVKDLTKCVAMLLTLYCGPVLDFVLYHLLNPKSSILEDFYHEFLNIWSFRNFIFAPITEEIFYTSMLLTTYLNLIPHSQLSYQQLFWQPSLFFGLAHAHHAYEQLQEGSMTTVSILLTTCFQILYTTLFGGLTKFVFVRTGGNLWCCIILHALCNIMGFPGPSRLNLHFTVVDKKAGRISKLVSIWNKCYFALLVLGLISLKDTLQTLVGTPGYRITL

CAAX prenyl protease 2 [4] = biological target: T1, CAAX prenyl protease 2; assay: yeast Rce1 CaaX protease inhibitors, dose response, biochemical, plate reader, dry powder retest (AID 588851)

Sequence of HSP90 (Q8IL32 whole entry): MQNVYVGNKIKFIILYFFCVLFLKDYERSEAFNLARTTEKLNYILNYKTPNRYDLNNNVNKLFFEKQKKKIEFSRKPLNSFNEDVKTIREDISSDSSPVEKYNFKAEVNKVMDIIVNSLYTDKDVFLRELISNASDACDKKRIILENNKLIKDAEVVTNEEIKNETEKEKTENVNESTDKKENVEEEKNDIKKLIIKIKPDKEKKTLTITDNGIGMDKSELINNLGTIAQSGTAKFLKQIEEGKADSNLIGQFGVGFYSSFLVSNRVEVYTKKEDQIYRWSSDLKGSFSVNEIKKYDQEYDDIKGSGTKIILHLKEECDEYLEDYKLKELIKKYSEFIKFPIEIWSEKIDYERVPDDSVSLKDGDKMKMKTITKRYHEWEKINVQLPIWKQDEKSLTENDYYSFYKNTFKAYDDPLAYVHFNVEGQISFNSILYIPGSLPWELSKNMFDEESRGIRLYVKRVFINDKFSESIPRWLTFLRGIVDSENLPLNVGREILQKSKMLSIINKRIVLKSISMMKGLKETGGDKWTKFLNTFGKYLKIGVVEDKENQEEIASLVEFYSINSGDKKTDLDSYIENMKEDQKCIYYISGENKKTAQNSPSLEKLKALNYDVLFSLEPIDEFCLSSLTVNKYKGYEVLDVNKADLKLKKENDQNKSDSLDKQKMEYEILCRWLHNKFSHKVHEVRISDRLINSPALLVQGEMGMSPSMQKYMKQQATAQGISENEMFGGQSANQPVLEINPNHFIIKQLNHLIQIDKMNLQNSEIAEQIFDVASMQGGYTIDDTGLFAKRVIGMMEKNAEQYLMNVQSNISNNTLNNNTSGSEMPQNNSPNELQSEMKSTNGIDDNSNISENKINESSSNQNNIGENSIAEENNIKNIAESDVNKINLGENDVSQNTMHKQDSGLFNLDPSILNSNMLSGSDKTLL

CCCC1CCC(c2ccc(C(=N)NO)cc2)CC1 (stereo not given)
AC50 (HSP90): 28.6 µM (active)

COc1ccc(C(=O)N2CCN(c3ccccn3)CC2)cc1
AC50 (Candida albicans [1]): 15.4 µM (active)
AC50 (Candida albicans [2]): 0.484 µM (active)

Cc1cccc(-c2nnc(SCc3ccc(C#N)cc3)n2Cc2ccco2)c1
AC50 (CAAX prenyl protease 2 [3]): 0.963 µM (active)
AC50 (CAAX prenyl protease 2 [4]): 16.8 µM (active)
